Laboratory results as given in ChEMBL document CHEMBL1201862, “PubChem BioAssay data set” (2004).
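Assay format: 96-well plates, 48-hour exposure. Abbreviation: GI50, concentration required for 50% inhibition of growth.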 The source made the active and inactive calls. Rule as the data show it: active = GI50 up to about 1.1 µM and inactive = higher.

Tests used:
Test in all cases: DTP human tumour cell line panel, 48 h
786-0 = system: 786-0
A549 = system: A549
ACHN = system: ACHN
BT-549 = system: BT-549
CAKI-1 = system: CAKI-1
CCRF-CEM = system: CCRF-CEM
COLO 205 = system: COLO 205
DU-145 = system: DU-145
EKVX = system: EKVX
HCC 2998 = system: HCC 2998
HCT-116 = system: HCT-116
HCT-15 = system: HCT-15
HL-60 = system: HL-60
HOP-62 = system: HOP-62
HOP-92 = system: HOP-92
HT-29 = system: HT-29
IGROV-1 = system: IGROV-1
K562 = system: K562
KM12 = system: KM12
LOX IMVI = system: LOX IMVI
M14 = system: M14
MCF7 = system: MCF7
MDA-MB-231 = system: MDA-MB-231
MDA-MB-435 = system: MDA-MB-435
MOLT-4 = system: MOLT-4
Malme-3M = system: Malme-3M
NCI-H226 = system: NCI-H226
NCI-H23 = system: NCI-H23
NCI-H460 = system: NCI-H460
NCI-H522 = system: NCI-H522
NCI/ADR-RES = system: NCI/ADR-RES
OVCAR-4 = system: OVCAR-4
OVCAR-5 = system: OVCAR-5
OVCAR-8 = system: OVCAR-8
PC-3 = system: PC-3
RPMI-8226 = system: RPMI-8226
SF-268 = system: SF-268
SF-295 = system: SF-295
SF-539 = system: SF-539
SK-MEL-28 = system: SK-MEL-28
SK-MEL-2 = system: SK-MEL-2
SK-MEL-5 = system: SK-MEL-5
SN12C = system: SN12C
SNB-19 = system: SNB-19
SNB-75 = system: SNB-75
SR = system: SR
SW-620 = system: SW-620
TK-10 = system: TK-10
U-251 = system: U-251
UACC-257 = system: UACC-257
A498 = system: A498
Hs-578T = system: Hs-578T
MDA-N = system: MDA-N
OVCAR-3 = system: OVCAR-3
SK-OV-3 = system: SK-OV-3
T47D = system: T47D
UACC-62 = system: UACC-62
UO-31 = system: UO-31
RXF 393 = system: RXF 393

Measured: GI50

O=C(Cn1cc(-c2ccccc2)nn1)NC1CCCC1
> 100 µM: HCT-15
inactive: 786-0 > 100 µM | A549 > 100 µM | ACHN > 100 µM | BT-549 > 100 µM | CAKI-1 > 100 µM | CCRF-CEM > 100 µM | COLO 205 > 100 µM | DU-145 > 100 µM | EKVX > 100 µM | HCC 2998 > 100 µM | HCT-116 > 100 µM | HL-60 > 100 µM | HOP-62 > 100 µM | HOP-92 > 100 µM | HT-29 > 100 µM | IGROV-1 > 100 µM | K562 > 100 µM | KM12 > 100 µM | LOX IMVI > 100 µM | M14 > 100 µM | MCF7 > 100 µM | MDA-MB-231 > 100 µM | MDA-MB-435 > 100 µM | MOLT-4 > 100 µM | Malme-3M > 100 µM | NCI-H226 > 100 µM | NCI-H23 > 100 µM | NCI-H460 > 100 µM | NCI-H522 > 100 µM | NCI/ADR-RES > 100 µM | OVCAR-4 > 100 µM | OVCAR-5 > 100 µM | OVCAR-8 > 100 µM | PC-3 > 100 µM | RPMI-8226 > 100 µM | SF-268 > 100 µM | SF-295 > 100 µM | SF-539 > 100 µM | SK-MEL-28 > 100 µM | SK-MEL-2 > 100 µM | SK-MEL-5 > 100 µM | SN12C > 100 µM | SNB-19 > 100 µM | SNB-75 56.2 µM | SR > 100 µM | SW-620 > 100 µM | TK-10 > 100 µM | U-251 > 100 µM | UACC-257 > 100 µM

NCCCN1CCN(CCCNc2ccc3ncn4c5ccccc5c(=O)c2c34)CC1
active: COLO 205 0.481 µM | HCC 2998 0.789 µM | HCT-116 1.03 µM | HL-60 0.861 µM | IGROV-1 1.04 µM | K562 1.09 µM | LOX IMVI 0.875 µM | MDA-MB-231 0.783 µM | MOLT-4 1.11 µM | NCI-H522 0.456 µM | OVCAR-4 0.728 µM | SK-MEL-5 0.791 µM | SN12C 0.826 µM | SNB-19 0.887 µM | U-251 1.02 µM
4.4 µM: HCT-15
inactive: 786-0 1.29 µM | A498 1.69 µM | A549 1.95 µM | ACHN 1.49 µM | CAKI-1 1.14 µM | CCRF-CEM 1.41 µM | DU-145 1.46 µM | EKVX 2.85 µM | HOP-62 1.71 µM | HOP-92 1.36 µM | HT-29 1.13 µM | Hs-578T 3.16 µM | KM12 3.29 µM | M14 2.79 µM | MCF7 1.32 µM | MDA-MB-435 1.46 µM | MDA-N 1.45 µM | Malme-3M 2.36 µM | NCI-H23 2.51 µM | NCI-H460 1.31 µM | NCI/ADR-RES 13.7 µM | OVCAR-3 4.07 µM | OVCAR-5 3.61 µM | OVCAR-8 1.87 µM | PC-3 1.69 µM | RPMI-8226 1.52 µM | SF-268 1.26 µM | SF-295 3.71 µM | SF-539 1.42 µM | SK-MEL-28 4.47 µM | SK-MEL-2 2.8 µM | SK-OV-3 4.98 µM | SNB-75 3.13 µM | SR 1.21 µM | SW-620 1.32 µM | T47D 3.02 µM | TK-10 4.2 µM | UACC-257 5.97 µM | UACC-62 2.14 µM | UO-31 5.28 µM

CC1(CCCCO)C=CC(S(=O)(=O)c2ccccc2)CC1 (configuration not stated)
active: Malme-3M 0.581 µM
inactive: 786-0 3.96 µM | A498 8.59 µM | A549 3.64 µM | ACHN 5.57 µM | BT-549 14.4 µM | CAKI-1 10.7 µM | CCRF-CEM 2.67 µM | COLO 205 4.37 µM | DU-145 5.14 µM | EKVX 3.1 µM | HCC 2998 5.9 µM | HCT-116 4.15 µM | HOP-62 2.64 µM | HOP-92 2.84 µM | HT-29 1.82 µM | IGROV-1 2.38 µM | K562 3.24 µM | KM12 1.86 µM | LOX IMVI 1.78 µM | M14 3.4 µM | MCF7 3.15 µM | MDA-MB-231 4.31 µM | MDA-MB-435 9.42 µM | MDA-N 3.42 µM | MOLT-4 3.15 µM | NCI-H226 2.43 µM | NCI-H23 5.04 µM | NCI-H460 3.15 µM | NCI-H522 1.87 µM | NCI/ADR-RES 2.59 µM | OVCAR-3 6.17 µM | OVCAR-4 8.67 µM | OVCAR-5 4.85 µM | OVCAR-8 10.5 µM | PC-3 4.11 µM | RPMI-8226 1.56 µM | RXF 393 5.45 µM | SF-268 1.36 µM | SF-295 12 µM | SF-539 7.91 µM | SK-MEL-28 14.9 µM | SK-MEL-2 11.1 µM | SK-MEL-5 4.27 µM | SK-OV-3 10.8 µM | SN12C 11 µM | SNB-19 13.6 µM | SNB-75 1.46 µM | SR 2.33 µM | SW-620 5.87 µM | TK-10 6.97 µM | U-251 6.95 µM | UACC-257 4.41 µM | UACC-62 6.15 µM | UO-31 4.16 µM
3.69 µM: HCT-15
